Where a name gives a salt, the structure may show the parent alone.

Holding throughout (format): in vivo
Data set [1] has as its system Mäuse. Description: Kalziumchlorid arrhythmia model, LD50 of Kalziumchlorid. The note with it: Kalziumchlorid i.v. combined with compound 50 mg/kg. On the procedure:
Die antiarrhythmischen Eigenschaften der erfindungsgemässen Verbindung wurden auch am Modell der Kalziumchloridarrhythmie untersucht. Der Mäusengruppe (I0 Gruppe) wurde einmalig die Kalziumchloridlösung intravenös im einzelnen und in Kombination mit γ -Amino-β -phenylbuttersäurehydrochlorid eingeführt. Die Dosis der letzteren betrug 50 mg/kg. Es wurde LD₅₀ für Kalziumchlorid bestimmt.

Data set [2] deals with Mäuse. Description: Anticonvulsant effect against Pikrotoxin, Bicucullin, Korazol, Thiosemikarbazid. The source says: Ausserdem wurde die krampflösende Wirkung der neuen Verbindung untersucht. Die Untersuchung wurde an männlichen weissen Mäusen bei der Einführung von Pikrotoxin, Bicucullin, Korazol, Thiosemikarbazid durchgeführt.
Data set [3] concerns Ratten. Description: Habituation study over 6 months: motor activity of rats in actometer. The source says: Das Ausbleiben der Gewöhnung an die beanspruchte Verbindung wurde auch in den Rattenversuchen festgestellt, die im Laufe von 6 Monaten zur Bestimmung der motorischen Aktivität der Ratten durchgeführt wurden.
Data set [4] deals with Mäuse. Kind of data set: Hypoxia in barochamber (11000 m), survival. On the procedure:
Nach einer der Methoden wurden die Mäuse in der Barokammer untergebracht, die für die Höhe von II000 m über dem Meeresspiegel gehoben wurde. Die Hebung wurde mit einer Geschwindigkeit von 50 m/s verwirklicht. Der atmosphärische Tiefdruck wurde mit Hilfe der elektrischen Vakuumpumpe geschaffen.
Die beanspruchte Verbindung, Natriumoxybutyrat und Pyrazetam wurden 60 min vor dem Versuch enteral eingeführt. Der Schutzeffekt wurde nach der Überlebensdauer eingeschätzt. Die Angaben sind in Tabelle I0 angeführt.

The subject of data set [5] is Ratten. Kind of data set: Swimming test at 25°C. As to conditions: 50,0 mg/kg. The source says: Der Einfluss der beanspruchten Verbindung auf die physische Toleranz der Tiere wurde nach dem Schwimmtest der Mäuse und Ratten untersucht. Die Versuche wurden in einer Wanne von […] Fläche durchgeführt. Die Tiergruppe (8 bis I0 Mäuse oder Ratten) wurde ins Wasser gebracht und es wurde die Zeit der Schwimmfähigkeit bestimmt. Die neue Verbindung und γ -Amino- β - -phenylbuttersäurehydrochlorid wurden enteral und intraperitoneal I Stunde oder 3 Stunden vor dem Schwimmbeginn eingeführt. Die Untersuchung wurde sowohl nach der einmaligen als auch nach der chronischen (innerhalb von 20 Tagen einmal täglich) Einführung der genannten Verbindungen durchgeführt. Die Versuche wurden bei 3 Temperaturen angestellt: 2°C (Tabelle I7), 25°C (Tabelle I8) und 40°C (Tabelle I9).

[6] abbreviates: male white mice, convulsants Pikrotoxin, Bicucullin, Korazol, Thiosemikarbazid.

As to `NCC(CC(=O)O)c1ccccc1` (stereo not drawn) [γ-Amino-β-phenylbutter-säurehydrochlorid, γ -Amino- β -phenylbuttersäurehydrochlorid, reference compound], the “Einfluss auf LD₅₀ von Kalziumchlorid” value in the data set on Mäuse [1] is listed as “keinen Einfluss”.

With “γ -Amino- β -phenylbuttersäureorotat [Erfindungsgemässe Verbindung]”, in the data set with Mäuse [2] (Dosen von 50 bis 200 mg/kg), the “krampflösende Wirksamkeit” value was “keine ausgeprägte krampflösende Wirksamkeit”. The “Anteil von Tieren, bei denen der Krampf beobachtet wurde” value with Mäuse [2] (setting [6]) was “verringert nicht”. Moreover, the Krampflatenzzeit entry with Mäuse [2] (setting [6]) is reported as “verlängert sicher”. In addition, the “Zahl der Impulse im Aktometer innerhalb von 30 min” value is 183±24 in the data set on Ratten [3] (day 1, 25 mg/kg); 111±13 in the data set on Ratten [3] (day 1, 75 mg/kg); 15±16 in the data set on Ratten [3] (day 1, 200 mg/kg); 171±18 in the data set on Ratten [3] (day 35, 25 mg/kg); 129±14 with Ratten [3] (day 35, 75 mg/kg); 64±18 with Ratten [3] (day 35, 200 mg/kg). For the same compound, the “Zahl der Impulse im Aktometer innerhalb von 30 min” value was determined as 126±27 in the data set with Ratten [3] (day 70, 25 mg/kg); 81±13 with Ratten [3] (day 70, 75 mg/kg); 43±15 in the data set with Ratten [3] (day 70, 200 mg/kg); 147±19 in the data set with Ratten [3] (day 85, 25 mg/kg); 109±17 in the data set on Ratten [3] (day 85, 75 mg/kg); 67±21 with Ratten [3] (day 85, 200 mg/kg). Besides, the “Zahl der Impulse im Aktometer innerhalb von 30 min” value in the data set on Ratten [3] (day 107, 25 mg/kg) stood at 138±20; in the data set with Ratten [3] (day 107, 75 mg/kg), 137±14; with Ratten [3] (day 107, 200 mg/kg), 79±17; in the data set on Ratten [3] (day 120, 25 mg/kg) it was 145±23; with Ratten [3] (day 120, 75 mg/kg), 118±28; with Ratten [3] (day 120, 200 mg/kg), 71±13. Moreover, the “Zahl der Impulse im Aktometer innerhalb von 30 min” value amounted to 168±32 in the data set on Ratten [3] (day 138, 25 mg/kg); 169±31 in the data set with Ratten [3] (day 138, 75 mg/kg); 103±13 in the data set with Ratten [3] (day 138, 200 mg/kg); 127±17 in the data set on Ratten [3] (day 154, 25 mg/kg); 181±31 in the data set with Ratten [3] (day 154, 75 mg/kg); 85±24 in the data set with Ratten [3] (day 154, 200 mg/kg). Besides, the “Zahl der Impulse im Aktometer innerhalb von 30 min” value amounted to 154±30 in the data set with Ratten [3] (day 180, 25 mg/kg); 148±13 with Ratten [3] (day 180, 75 mg/kg); 117±18 in the data set with Ratten [3] (day 180, 200 mg/kg). Besides, the figures for the Überlebensdauer in the data set on Mäuse [4] (50,0 mg/kg enteral 60 min before), in the data set with Mäuse [4] (100,0 mg/kg enteral 60 min before) and with Mäuse [4] (200,0 mg/kg enteral 60 min before) were 6,2±1,4 min, 7,5±2,1 min and 15,2±1,8 min, respectively. Moreover, the “Schwimmzeit, Ratten” value in the data set with Ratten [5] was 8,2±0,5.
